This note sets out measurements from patent US8785594B2, “Glycoproteins and glycosylated cells and a method for the preparation of the same” (Glycom A/S, priority 2007, dated 2014).

Where only a bound is given, the exact number is not on record here.

The test deals with B16.BL6 melanoma cells. Description: Flow cytometry with FITC-labelled GS1B4 (Example 11). The class given is cell-based. The method, then:
Five hundred mg of alpha-Gal trisaccharide-carbamate (9) was dissolved in PBS (without Mg^2+ and Ca^2+) (Gibco Invitrogen, Taastrup, Denmark) and passed through a sterile filter (Sartorius Minisart®, 0.20 my) (Sartorius, Goettingen, Germany). Eight different concentrations of conjugate were prepared. Two mL of each conjugate dilution was added to a flask with 2 mL of PBS (without Mg^2+ and Ca^2+) and 600 μl of cell suspension containing 10^6 B16.BL6 cells. The final volume of the flasks was 4.6 mL. The flasks were numbered 1 to 10. Flasks 1 and 10 contained no conjugate and served as controls. The cells were incubated with the conjugate for 3 hours and 25 minutes at 37° C. and 5% CO2.
B16.BL6 cells from conjugation reaction 1 (non-conjugated cells), 2, 4, 6 and 8 were analysed by flow cytometry. One hundred μL of cell suspension containing 1×10^5 cells were incubated for 15 minutes at 4° C. with 10 μg per mL (1:100 dilution) of FITC-labelled GS1B4 in TBS containing 1% BSA. The proportion of cells stained, mean and median cell fluorescence intensity was determined by flow cytometry. Afterwards, cells were washed once in PBS and measurements were repeated. Rabbit red blood cells (RRBC) known to express ˜2×10^6 Galα1,3Gal epitopes per cell were used for comparison. The analyses of conjugated B16.BL6 cells and RRBCs were performed on different days.
Background: Flow cytometry measures light scatter and fluorescence of single cells or particles in a stream.

Where [1] appears, read: unwashed cells, reaction 2 (200 mg conjugate).
Where [2] appears, read: unwashed cells, reaction 6 (10 mg conjugate).
Setting [3] is: unwashed cells, reaction 8 (2 mg conjugate).
Setting [4] is: washed cells, reaction 2 (200 mg conjugate).
Where [5] appears, read: washed cells, reaction 6 (10 mg conjugate).
[6] abbreviates: washed cells, reaction 8 (2 mg conjugate).

Turning to `O=C1N[C@@H]2O[C@H](CO)[C@@H](O[C@@H]3O[C@H](CO)[C@H](O)[C@H](O[C@H]4O[C@H](CO)[C@H](O)[C@H](O)[C@H]4O)[C@H]3O)[C@H](O)[C@H]2O1` [Compound 9, alpha-Gal trisaccharide-carbamate], the “Galα1,3Gal epitopes detected by binding of FITC-labelled GS1B4, flow cytometry” value (conjugation reactions 2, 6 and 8) is “found on B16.BL6 cells from all conjugation reactions tested”. The “Number of Galα1,3Gal-epitopes on the conjugated cells” value (from fluorescence intensity, compared with rabbit red blood cells) is given as > 2×10^6 Galα1,3Gal epitopes. The “Cells marked with FITC-GS1B4” value runs as follows: (reaction 2 (200 mg conjugate)) 95.82%; (reaction 6, 10 mg conjugate) 62.17%; (reaction 8, 2 mg conjugate) 56.82%. In addition, the Mean fluorescence intensity reads like this: under setting [1], 726.72; under setting [2], 862.24; under setting [3], 594.99; under setting [4], 447.48; under setting [5], 439.04; under setting [6], 264.30. The Median fluorescence intensity is, setting by setting: under setting [1], 523.30; under setting [2], 798.63; under setting [3], 572.55; under setting [4], 321.97; under setting [5], 406.79; under setting [6], 259.45.
